Measurements reported in patent publication US20170190671A1, “BIS(ARYL)CATECHOL DERIVATIVES AS HERBICIDES” (E I DU PONT DE NEMOURS AND COMPANY, priority 2014, published 2017).

Assays:
Format in all cases: in vivo
[1] = system: yellow nutsedge (Cyperus esculentus); assay: Test C preemergence; settings: Cyperus, pre-emergence, 336 h, scale 0 to 100, read-out: Plant response rating, Nutsedge, Yellow
Outline: (§1)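 Visual ratings (0 none to 100 complete control) were made 13 to 15 days after treatment, relative to controls. Test chemicals, formulated in a non-phytotoxic solvent mixture with surfactant, were applied in the greenhouse preemergence to seeded loam-sand soil or postemergence to plants 2 to 18 cm tall.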

[2] = system: velvetleaf (Abutilon theophrasti); assay: Test C preemergence; settings: Abutilon theophrasti, pre-emergence, scale 0 to 100, read-out: Plant response rating, Velvetleaf
Outline: as §1

[3] = system: morningglory (Ipomoea coccinea); assay: Test C preemergence; settings: Ipomoea, pre-emergence, 336 h, scale 0 to 100, read-out: Plant response rating, Morningglory
Outline: as §1

[4] = system: oilseed rape (Brassica napus); assay: Test C preemergence; settings: Brassica napus, pre-emergence, scale 0 to 100, read-out: Plant response rating, Oilseed Rape
Outline: as §1

[5] = system: johnsongrass (Sorghum halepense); assay: Test C preemergence; settings: Sorghum halepense, pre-emergence, 336 h, scale 0 to 100, read-out: Plant response rating, Johnsongrass
Outline: as §1

[6] = system: barnyardgrass (Echinochloa crus-galli); assay: Test C preemergence; settings: Echinochloa crus-galli, pre-emergence, read-out: Plant response rating, Barnyardgrass
Outline: as §1

[7] = system: pigweed (Amaranthus retroflexus); assay: Test C preemergence; settings: Amaranthus retroflexus, pre-emergence, 336 h, scale 0 to 100, read-out: Plant response rating, Pigweed
Outline: as §1

[8] = system: galium (catchweed bedstraw, Galium aparine); assay: Test C preemergence; settings: Galium, pre-emergence, 336 h, scale 0 to 100, read-out: Plant response rating, Galium
Outline: as §1

[9] = system: large (Lg) crabgrass (Digitaria sanguinalis); assay: Test C preemergence; settings: Digitaria sanguinalis, pre-emergence, 336 h, scale 0 to 100, read-out: Plant response rating, Crabgrass, Large
Outline: as §1

[10] = system: lambsquarters (Chenopodium album); assay: Test C preemergence; settings: Chenopodium album, pre-emergence, 336 h, scale 0 to 100, read-out: Plant response rating, Lambsquarters
Outline: as §1

[11] = system: winter wheat (Triticum aestivum); assay: Test C preemergence; settings: Triticum aestivum, pre-emergence, 336 h, scale 0 to 100, read-out: Plant response rating, Wheat
Outline: as §1

[12] = system: soybean (Glycine max); assay: Test C preemergence; settings: Glycine max, pre-emergence, scale 0 to 100, read-out: Plant response rating, Soybean
Outline: as §1

[13] = system: corn (Zea mays); assay: Test C preemergence; settings: Zea mays, pre-emergence, 336 h, scale 0 to 100
Outline: as §1

[14] = system: blackgrass (Alopecurus myosuroides); assay: Test C preemergence; settings: Alopecurus myosuroides, pre-emergence, 336 h, scale 0 to 100, read-out: Plant response rating, Blackgrass
Outline: as §1

[15] = system: ragweed (common ragweed, Ambrosia elatior); assay: Test C preemergence; settings: Ambrosia artemisiifolia, pre-emergence, 336 h, scale 0 to 100, read-out: Plant response rating, Ragweed
Outline: as §1

[16] = system: giant foxtail (Setaria faberii); assay: Test C preemergence; settings: Setaria faberi, pre-emergence, 336 h, scale 0 to 100, read-out: Plant response rating, Foxtail, Giant
Outline: as §1

[17] = system: velvetleaf (Abutilon theophrasti); assay: Test C postemergence; settings: Abutilon theophrasti, post-emergence, Postemergence, scale 0 to 100, read-out: Plant response rating, Velvetleaf
Outline: as §1

[18] = system: morningglory (Ipomoea coccinea); assay: Test C postemergence; settings: Ipomoea, post-emergence, 336 h, Postemergence, scale 0 to 100, read-out: Plant response rating, Morningglory
Outline: as §1

[19] = system: kochia (Kochia scoparia); assay: Test C postemergence; settings: Bassia scoparia, post-emergence, Postemergence, scale 0 to 100, read-out: Plant response rating, Kochia
Outline: as §1

[20] = system: galium (catchweed bedstraw, Galium aparine); assay: Test C postemergence; settings: Galium, post-emergence, 336 h, Postemergence, scale 0 to 100, read-out: Plant response rating, Galium
Outline: as §1

[21] = system: large (Lg) crabgrass (Digitaria sanguinalis); assay: Test C postemergence; settings: Digitaria sanguinalis, post-emergence, 336 h, Postemergence, scale 0 to 100, read-out: Plant response rating, Crabgrass, Large
Outline: as §1

[22] = system: winter wheat (Triticum aestivum); assay: Test C postemergence; settings: Triticum aestivum, post-emergence, 336 h, Postemergence, scale 0 to 100, read-out: Plant response rating, Wheat
Outline: as §1

## Fc1cccc(Oc2ncc(C(F)(F)F)cn2)c1Oc1ncc(Cl)cn1 [Compound 42, 5-chloro-2-[2-fluoro-6-[[5-(trifluoromethyl)-2-pyrimidinyl]oxy]phenoxy]pyrimidine]
[1]; 31 g ai/ha, preemergence
  pest or weed control at 31 g/ha: 10%
[1]; 62 g ai/ha, preemergence
  pest or weed control at 62 g/ha: 50%
[1]; 125 g ai/ha, preemergence
  pest or weed control at 125 g/ha: 75%
[1]; Preemergence, 16 g ai/ha
  pest or weed control at 16 g/ha: 0%
[2]; 31 g ai/ha, preemergence
  pest or weed control at 31 g/ha: 100%
[2]; 62 g ai/ha, preemergence
  pest or weed control at 62 g/ha: 100%
[2]; 125 g ai/ha, preemergence
  pest or weed control at 125 g/ha: 100%
[2]; Preemergence, 16 g ai/ha
  pest or weed control at 16 g/ha: 100%
[3]; 31 g ai/ha, preemergence
  pest or weed control at 31 g/ha: 85%
[3]; 62 g ai/ha, preemergence
  pest or weed control at 62 g/ha: 100%
[3]; 125 g ai/ha, preemergence
  pest or weed control at 125 g/ha: 100%
[3]; Preemergence, 16 g ai/ha
  pest or weed control at 16 g/ha: 60%
[4]; 31 g ai/ha, preemergence
  plant injury at 31 g/ha: 100%
[4]; 62 g ai/ha, preemergence
  plant injury at 62 g/ha: 100%
[4]; 125 g ai/ha, preemergence
  plant injury at 125 g/ha: 100%
[4]; Preemergence, 16 g ai/ha
  plant injury at 16 g/ha: 98%
[5]; 31 g ai/ha, preemergence
  pest or weed control at 31 g/ha: 70%
[5]; 62 g ai/ha, preemergence
  pest or weed control at 62 g/ha: 100%
[5]; 125 g ai/ha, preemergence
  pest or weed control at 125 g/ha: 100%
[5]; Preemergence, 16 g ai/ha
  pest or weed control at 16 g/ha: 30%
[6]; 31 g ai/ha, preemergence, scale 0 to 100
  pest or weed control at 31 g/ha: 90%
[6]; 62 g ai/ha, preemergence, scale 0 to 100
  pest or weed control at 62 g/ha: 100%
[6]; 125 g ai/ha, preemergence, scale 0 to 100
  pest or weed control at 125 g/ha: 100%
[6]; Preemergence, 16 g ai/ha, scale 0 to 100 (0 no effect, 100 complete control)
  pest or weed control at 16 g/ha: 50%
[7]; 31 g ai/ha, preemergence
  pest or weed control at 31 g/ha: 100%
[7]; 62 g ai/ha, preemergence
  pest or weed control at 62 g/ha: 100%
[7]; 125 g ai/ha, preemergence
  pest or weed control at 125 g/ha: 100%
[7]; Preemergence, 16 g ai/ha
  pest or weed control at 16 g/ha: 100%
[8]; 31 g ai/ha, preemergence
  pest or weed control at 31 g/ha: 95%
[8]; 62 g ai/ha, preemergence
  pest or weed control at 62 g/ha: 95%
[8]; 125 g ai/ha, preemergence
  pest or weed control at 125 g/ha: 98%
[8]; Preemergence, 16 g ai/ha
  pest or weed control at 16 g/ha: 95%
[9]; 31 g ai/ha, preemergence
  pest or weed control at 31 g/ha: 100%
[9]; 62 g ai/ha, preemergence
  pest or weed control at 62 g/ha: 100%
[9]; 125 g ai/ha, preemergence
  pest or weed control at 125 g/ha: 100%
[9]; Preemergence, 16 g ai/ha
  pest or weed control at 16 g/ha: 100%
[10]; 31 g ai/ha, preemergence
  pest or weed control at 31 g/ha: 100%
[10]; 62 g ai/ha, preemergence
  pest or weed control at 62 g/ha: 100%
[10]; 125 g ai/ha, preemergence
  pest or weed control at 125 g/ha: 100%
[10]; Preemergence, 16 g ai/ha
  pest or weed control at 16 g/ha: 100%
[11]; 31 g ai/ha, preemergence
  plant injury at 31 g/ha: 30%
[11]; 62 g ai/ha, preemergence
  plant injury at 62 g/ha: 45%
[11]; 125 g ai/ha, preemergence
  plant injury at 125 g/ha: 90%
[11]; Preemergence, 16 g ai/ha
  plant injury at 16 g/ha: 0%
[12]; 31 g ai/ha, preemergence
  plant injury at 31 g/ha: 50%
[12]; 62 g ai/ha, preemergence
  plant injury at 62 g/ha: 80%
[12]; 125 g ai/ha, preemergence
  plant injury at 125 g/ha: 95%
[12]; Preemergence, 16 g ai/ha
  plant injury at 16 g/ha: 25%
[13]; 31 g ai/ha, preemergence
  Corn plant response rating (crop injury, 0 = no effect, 100 = complete kill) at 31 g/ha: 5%
[13]; 62 g ai/ha, preemergence
  Corn plant response rating (crop injury, 0 = no effect, 100 = complete kill) at 62 g/ha: 80%
[13]; 125 g ai/ha, preemergence
  Corn plant response rating (crop injury, 0 = no effect, 100 = complete kill) at 125 g/ha: 85%
[13]; Preemergence, 16 g ai/ha
  Corn plant response rating (crop injury, 0 = no effect, 100 = complete kill) at 16 g/ha: 0%
[14]; 31 g ai/ha, preemergence
  pest or weed control at 31 g/ha: 65%
[14]; 62 g ai/ha, preemergence
  pest or weed control at 62 g/ha: 90%
[14]; 125 g ai/ha, preemergence
  pest or weed control at 125 g/ha: 90%
[14]; Preemergence, 16 g ai/ha
  pest or weed control at 16 g/ha: 35%
[15]; 31 g ai/ha, preemergence
  pest or weed control at 31 g/ha: 55%
[15]; 62 g ai/ha, preemergence
  pest or weed control at 62 g/ha: 98%
[15]; 125 g ai/ha, preemergence
  pest or weed control at 125 g/ha: 90%
[15]; Preemergence, 16 g ai/ha
  pest or weed control at 16 g/ha: 30%
[16]; 31 g ai/ha, preemergence
  pest or weed control at 31 g/ha: 100%
[16]; 62 g ai/ha, preemergence
  pest or weed control at 62 g/ha: 100%
[16]; 125 g ai/ha, preemergence
  pest or weed control at 125 g/ha: 100%
[16]; Preemergence, 16 g ai/ha
  pest or weed control at 16 g/ha: 85%
[17]; 31 g ai/ha
  pest or weed control at 31 g/ha: 60%
[17]; 62 g ai/ha
  pest or weed control at 62 g/ha: 70%
[17]; 125 g ai/ha
  pest or weed control at 125 g/ha: 85%
[18]; 31 g ai/ha
  pest or weed control at 31 g/ha: 70%
[18]; 62 g ai/ha
  pest or weed control at 62 g/ha: 75%
[18]; 125 g ai/ha
  pest or weed control at 125 g/ha: 85%
[19]; 16 g ai/ha
  pest or weed control at 16 g/ha: 90%
[19]; 31 g ai/ha
  pest or weed control at 31 g/ha: 95%
[19]; 62 g ai/ha
  pest or weed control at 62 g/ha: 100%
[19]; 125 g ai/ha
  pest or weed control at 125 g/ha: 100%
[20]; 16 g ai/ha
  pest or weed control at 16 g/ha: 75%
[20]; 31 g ai/ha
  pest or weed control at 31 g/ha: 98%
[20]; 62 g ai/ha
  pest or weed control at 62 g/ha: 100%
[20]; 125 g ai/ha
  pest or weed control at 125 g/ha: 100%
[21]; 16 g ai/ha
  pest or weed control at 16 g/ha: 10%
[21]; 31 g ai/ha
  pest or weed control at 31 g/ha: 20%
[21]; 62 g ai/ha
  pest or weed control at 62 g/ha: 15%
[21]; 125 g ai/ha
  pest or weed control at 125 g/ha: 40%
[22]; 31 g ai/ha
  plant injury at 31 g/ha: 0%
[22]; 62 g ai/ha
  plant injury at 62 g/ha: 0%
[22]; 125 g ai/ha
  plant injury at 125 g/ha: 10%
